From ChEMBL document CHEMBL1821627, “Medicinal chemistry as a conduit for the modulation of quorum sensing” (J Med Chem, 2010) come the findings set out here.

Test [1] has as its system PC-3. Briefly: Growth inhibition of human PC3 cells. The format is functional, cell-based.
In test [2] the target is T1, Transcriptional activator protein LasR (Pseudomonas aeruginosa (strain ATCC 15692 / PAO1 / 1C / PRS 101 / LMG12228), UniProt P25084).
T1 sequence (P25084 whole entry): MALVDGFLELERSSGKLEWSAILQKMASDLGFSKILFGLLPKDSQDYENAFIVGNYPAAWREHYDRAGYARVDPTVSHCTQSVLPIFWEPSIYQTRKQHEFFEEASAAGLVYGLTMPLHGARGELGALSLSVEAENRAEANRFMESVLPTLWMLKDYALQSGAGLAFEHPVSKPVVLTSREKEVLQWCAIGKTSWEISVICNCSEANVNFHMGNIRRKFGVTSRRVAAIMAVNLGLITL
Briefly: Agonist activity at Pseudomonas aeruginosa LasR receptor expressed in Escherichia coli in absence of natural autoinducer. Format: functional.

For test [3], the target named is T2, Transcriptional activator protein TraR (Agrobacterium tumefaciens, UniProt P33905).
T2 sequence (P33905 whole entry): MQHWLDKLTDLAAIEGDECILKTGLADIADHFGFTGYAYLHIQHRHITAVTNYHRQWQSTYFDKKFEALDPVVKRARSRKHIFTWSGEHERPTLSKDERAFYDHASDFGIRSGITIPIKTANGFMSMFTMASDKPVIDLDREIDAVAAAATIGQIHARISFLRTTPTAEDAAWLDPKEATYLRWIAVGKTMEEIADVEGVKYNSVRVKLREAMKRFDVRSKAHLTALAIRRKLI
The experiment in a line: Antagonist activity at Agrobacterium tumefaciens TraR receptor in presence of 100 nM 3-oxo-C8-HSL. Format: functional.

In test [4] the target is T3, Transcriptional activator protein LuxR (Aliivibrio fischeri, UniProt P12746).
T3 sequence (P12746 whole entry): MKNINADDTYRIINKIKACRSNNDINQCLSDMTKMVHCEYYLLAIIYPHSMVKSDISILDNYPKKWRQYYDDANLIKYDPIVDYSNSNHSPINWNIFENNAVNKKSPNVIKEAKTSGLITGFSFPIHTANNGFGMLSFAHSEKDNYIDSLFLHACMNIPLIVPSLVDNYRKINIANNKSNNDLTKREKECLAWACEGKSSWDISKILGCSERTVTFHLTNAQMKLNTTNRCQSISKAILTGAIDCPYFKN
The experiment in a line: Antagonist activity at Vibrio fischeri luxR receptor in presence of 5 uM 3-oxo-C6-HSL. Format: functional.

Test [5] is described as follows: Inhibition of autoinducer-stimulated quorum sensing regulated bioluminescence in Vibrio fischeri by luminescence assay. The arrangement: species or system Aliivibrio fischeri.
Test [6] concerns the target T1, Transcriptional activator protein LasR. Briefly: Antagonist activity at Pseudomonas aeruginosa LasR receptor expressed in Escherichia coli in presence of 7.5 nM natural auto-inducer 3-oxo-C12-HSL. The format is functional.
In test [7] the target is T3, Transcriptional activator protein LuxR. Briefly: Agonist activity at Vibrio fischeri luxR receptor in absence of natural autoinducer. Format: functional.
The target in test [8] is T1, Transcriptional activator protein LasR. The experiment in a line: Agonist activity at Pseudomonas aeruginosa LasR cognate receptor expressed in Escherichia coli harboring pKDT17 assessed as activation of lasB expression by LacZ reporter gene assay. Format: functional. In general terms: A reporter such as luciferase makes a cellular process visible.
The subject of test [9] is Vibrio harveyi. The experiment in a line: Induction of quorum sensing regulated bioluminescence in Vibrio harveyi by luminescence assay.
Test [10] is described as follows: Inhibition of quorum sensing in Pseudomonas aeruginosa assessed as inhibition of LasR-dependent yellow fluorescent protein emission by luminescence assay.
The subject of test [11] is Aliivibrio fischeri. The experiment in a line: Induction of quorum sensing regulated bioluminescence in Vibrio fischeri by luminescence assay relative to natural autoinducer.
The nature of test [12]: Inhibition of quorum sensing Salmonella Typhimurium by beta-galactosidase transcription assay in presence of 50 uM DPD. The arrangement: species or system Salmonella enterica subsp. enterica serovar Typhimurium.
The test system of test [13] is Salmonella enterica subsp. enterica serovar Typhimurium. The experiment in a line: Ratio of compound IC50 to DPD IC50 for Salmonella Typhimurium quorum sensing system.
Test [14] in a line: Inhibition of Staphylococcus aureus Quorum sensing system AgrC-II activation after 60 to 90 minutes by beta-lactamase reporter assay. The following applies: read-out: IC50.
Test [15] is described as follows: Inhibition of Staphylococcus aureus Quorum sensing system AgrC-IV activation after 60 to 90 minutes by beta-lactamase reporter assay.
Test [16] in a line: Inhibition of Staphylococcus aureus Quorum sensing system AgrC-I activation after 60 to 90 minutes by beta-lactamase reporter assay. The following applies: read-out: IC50.
Test [17] is described as follows: Inhibition of Staphylococcus aureus Quorum sensing system AgrC-III activation after 60 to 90 minutes by […].

Structures are written as SMILES. pEC50, pIC50: −log10 of the molar value. Where a SMILES comes first, the peptide text is derived from it. Bridges are numbered along the chain shown (N, C = ends).

One may read the pIC50 as −log10 of the IC50, conventionally taken in molar units. For the compound `O=C(CCCCCCCCCCCc1ccccc1)N[C@H]1CCOC1=O`, in test [1], the pIC50 was below 4.00. Usually pEC50 stands for the EC50 on a negative log10 scale, so that one unit is a factor of ten. In the case of `O=C(CC(=O)N[C@H]1CCOC1=O)Cc1ccccc1`, in [2], the pEC50 was 6.27.

In the case of `CCCCCCCCCC(=O)N[C@H]1CCOC1=O`, the pIC50 in test [3] was 5.98; in [4], 6.40; in test [5], 7.41; in test [6], 6.60.

Consider `CCCCCCC(=O)N[C@H]1CCOC1=O`, for which the negative logarithm of the IC50 (pIC50) in test [3] was 6.16; in [4], 5.87.

Compound `O=C(Cc1cccc([N+](=O)[O-])c1)N[C@H]1CCOC1=O` gave a pEC50 in [7] of 6.46. `CCCCCCCCCCCC(=O)CC(=O)N[C@H]1CCOC1=O`: the negative-log EC50 (pEC50) is 7.82 in [8] and 8.00 in [2]. Regarding `CC(=O)C(=O)[C@@H](O)CO`, the pEC50 in [9] is 5.52.

Turning to `CCCCCCCCCCCCn1nnc(CC(=O)O)n1`, in test [10], the pIC50 is 7.52.

In the case of `O=C1[C@@H](O)COC1(O)C(F)(F)F` (stereo partly specified), the pEC50 in test [9] is 4.52. `O=C(Nc1ccccc1NC(=O)c1cccc(Cl)c1)c1cccc(Cl)c1`: the pIC50 in test [10] was 4.30. In test [11], `CC(=O)CCCC(=O)N[C@H]1CCOC1=O` showed an Activity of 10%.

Turning to `CCCCCC(=O)CC(=O)N[C@H]1CCOC1=O`, in test [8], the pEC50 is 6.82. In addition, in test [11], the Activity stood at 50%.

`CCCCC(=O)C(=O)[C@@H](O)CO`: the pIC50 in test [12] is 5.30. For the same compound, in test [13], the Ratio IC50 is below 10.

On to `CCCC(=O)C(=O)[C@@H](O)CO`, for which, in test [12], the pIC50 was 5.28. Moreover, the Ratio IC50 in test [13] is below 10. With `CC(=O)N[C@H]1CSC(=O)[C@H](Cc2ccccc2)NC(=O)[C@H](CC(C)C)NC(=O)[C@H](CO)NC(=O)[C@H](CO)NC1=O` (Ac-CSSLF; thioester 1-C), the pIC50 in [14] is 6.68; in test [15], 6.73; in [16], 6.57; in test [17], 8.00.
